Like-named read-outs stand apart in the source and are kept apart here.
What was measured:
adult mongrel dogs [1] = assay: Acute in vivo cardiotonic activity in anesthetized dogs; design: species or system dog (adult mongrel); details: Canis lupus familiaris, relative to controls; for change in vivo at 0.125 mg/kg: 0.125 mg/kg intravenous; for change in vivo at 0.12 mg/kg: 0.12 mg/kg intravenous; for change in vivo at 0.15 mg/kg: 0.150 mg/kg intravenous; for change in vivo at 1.875 mg/kg: 1.875 mg/kg intravenous; for change in vivo at 0.875 mg/kg: 0.875 mg/kg intravenous; for change in vivo at 0.375 mg/kg: 0.375 mg/kg intravenous; for change in vivo at 8.75 mg/kg: 8.75 mg/kg intravenous
Method: The acute in vivo cardiotonic activity of compounds prepared according to the present invention was determined according to a modification of the procedure described by Alousi et al., Circ. Res., 45, 666 (1979).
In particular, adult mongrel dogs were anesthetized with sodium pentobarbital and were artificially respired. Arterial pressure was monitored via a femoral artery, and the pulse pressure was used to trigger a cardiotachometer for heart rate. Left ventricular pressure was determined with a Millar catheter, and dP/dt (the change in ventricular pressure with time) was derived. Cardiac output was determined by measuring ascending aortic blood flow with an electromagnetic flow probe, and myocardial contractile force was measured with a Walton Brodie strain gauge sutured to the right ventricle. Lead II EKG was also recorded.
A standard dose (10 μ/kg/min) of dopamine was administered to assess myocardial responsiveness.
Compounds of the invention were administered by intravenous infusion or bolus oral administration, and the effects on cardiovascular parameters were determined.
Dose related effects on the test compound on blood pressure (BP), heart rate (HR), maximum change in left ventricular pressure with time (dP/dt max), % change in cardiac force (CF) and the increase in mean arterial blood pressure relative to controls (MABP) were compared to pretreatment control values, expressed as a % change and rated for activity. Statistical evaluations were made using the appropriate parametric test against controls.

adult mongrel dogs [2] = assay: Renal vasodilating activity in anesthetized dogs; type: in vivo, dog (adult mongrel); details: Canis lupus familiaris; for change in vivo at 0.04 mg/kg: 0.04 mg/kg intravenous; for change in vivo at 6.2 mg/kg: 6.2 mg/kg intravenous; for change in vivo at 0.2 mg/kg: 0.2 mg/kg intravenous; for change in vivo at 1.2 mg/kg: 1.2 mg/kg intravenous; for change in vivo at 0.34 mg/kg: 0.34 mg/kg intravenous; for change in vivo at 0.14 mg/kg: 0.14 mg/kg intravenous
Method: Goldberg et al, J. Pharmacol. Exp. Ther., 163, 188 (1968), performed an investigation of the structural requirements for dopamine-like renal vasodilation of phenethylamines and apmorphine. The following procedure is a variation of the assay described in that report.
Adult mongrel dogs were anesthetized and surgically prepared for electromagnetic measurement of renal artery blood flow. A carotid artery was cannulated for measuring arterial blood pressure, and drugs were administered intravenously or intraarterially (via the renal artery). Heart rate was monitored with a cardiotachometer. Renal vascular resistance was calculated as the ratio of mean arterial blood pressure/renal artery blood flow. Dopamine was infused intravenously at […] for ten minutes (at an infusion rate of about 1 ml/min) to determine responsiveness of each dog to renal dopamine receptor stimulation. Cumulative dose-response data were obtained by infusing a compound of this invention at progressively increasing (usually three-fold) infusion rates, esch dose being infused for five minutes. The maximum percent increase from pre-drug control in renal artery blood flow (or a decrease in renal vascular resistance) was determined for each infusion dose.
RBF values are percent increase in renal blood flow. RVR values are percent increase in renal vascular resistance. MABP and HR are increases in mean arterial blood pressure and heart rate, respectively, relative to controls.

[3] = read-out: CF, percent change in cardiac force
[4] = read-out: HR, percent change in heart rate
[5] = read-out: MABP, mean arterial blood pressure
[6] = read-out: dP/dt, maximum change left ventricular pressure with time
[7] = relative to controls, read-out: HR, percent change in heart rate
[8] = relative to controls, read-out: MABP, mean arterial blood pressure
[9] = relative to controls, read-out: RBF, renal blood flow
[10] = relative to controls, read-out: RVR, renal vascular resistance

## CCOc1cc2c(C)nc(O)c([N+](=O)[O-])c2cc1OC [BH]
Adult mongrel dogs [1]; [3]
  change in vivo at 0.125 mg/kg: 134%
Adult mongrel dogs [1]; [4]
  change in vivo at 0.125 mg/kg: 18%
Adult mongrel dogs [1]; [5]
  change in vivo at 0.125 mg/kg: -24%
Adult mongrel dogs [1]; [6]
  change in vivo at 0.125 mg/kg: 74%
Adult mongrel dogs [2]; [7]
  change in vivo at 0.04 mg/kg: 19%
Adult mongrel dogs [2]; [8]
  change in vivo at 0.04 mg/kg: -10%
Adult mongrel dogs [2]; [9]
  change in vivo at 0.04 mg/kg: 25%
Adult mongrel dogs [2]; [10]
  change in vivo at 0.04 mg/kg: -28%

## CCOc1cc2c([N+](=O)[O-])c(O)nc(C)c2cc1OC [BAN]
Adult mongrel dogs [1]; [3]
  change in vivo at 0.12 mg/kg: 49%
Adult mongrel dogs [1]; [4]
  change in vivo at 0.12 mg/kg: 4%
Adult mongrel dogs [1]; [5]
  change in vivo at 0.12 mg/kg: -18%
Adult mongrel dogs [1]; [6]
  change in vivo at 0.12 mg/kg: 12%
Adult mongrel dogs [2]; [7]
  change in vivo at 6.2 mg/kg: -5%
Adult mongrel dogs [2]; [8]
  change in vivo at 6.2 mg/kg: 1%
Adult mongrel dogs [2]; [9]
  change in vivo at 6.2 mg/kg: 61%
Adult mongrel dogs [2]; [10]
  change in vivo at 6.2 mg/kg: -37%

## COc1cc2c(C)nc(O)c([N+](=O)[O-])c2cc1OC [Compound BA, 3-Hydroxy-6,7-dimethoxy-1-methyl-4-nitroisoquinoline]
Adult mongrel dogs [1]; [3]
  change in vivo at 0.15 mg/kg: 92%
Adult mongrel dogs [1]; [4]
  change in vivo at 0.15 mg/kg: 8%
Adult mongrel dogs [1]; [5]
  change in vivo at 0.15 mg/kg: -19%
Adult mongrel dogs [1]; [6]
  change in vivo at 0.15 mg/kg: 63%
Adult mongrel dogs [2]; [7]
  change in vivo at 0.2 mg/kg: 83%
Adult mongrel dogs [2]; [8]
  change in vivo at 0.2 mg/kg: -12%
Adult mongrel dogs [2]; [9]
  change in vivo at 0.2 mg/kg: 14%
Adult mongrel dogs [2]; [10]
  change in vivo at 0.2 mg/kg: -23%

## COc1cc2cnc(O)c(NC(C)=O)c2cc1OC [BF]
Adult mongrel dogs [1]; [3]
  change in vivo at 1.875 mg/kg: 23%
Adult mongrel dogs [1]; [4]
  change in vivo at 1.875 mg/kg: 7%
Adult mongrel dogs [1]; [5]
  change in vivo at 1.875 mg/kg: 1%
Adult mongrel dogs [1]; [6]
  change in vivo at 1.875 mg/kg: 38%
Adult mongrel dogs [2]; [7]
  change in vivo at 6.2 mg/kg: -8%
Adult mongrel dogs [2]; [8]
  change in vivo at 6.2 mg/kg: 14%
Adult mongrel dogs [2]; [9]
  change in vivo at 6.2 mg/kg: 30%
Adult mongrel dogs [2]; [10]
  change in vivo at 6.2 mg/kg: -12%

## COc1cc2c([N+](=O)[O-])c(O)nc(C)c2c(OC)c1OC [BE]
Adult mongrel dogs [1]; [3]
  change in vivo at 0.875 mg/kg: 84%
Adult mongrel dogs [1]; [4]
  change in vivo at 0.875 mg/kg: 18%
Adult mongrel dogs [1]; [5]
  change in vivo at 0.875 mg/kg: -22%
Adult mongrel dogs [1]; [6]
  change in vivo at 0.875 mg/kg: 38%
Adult mongrel dogs [2]; [7]
  change in vivo at 1.2 mg/kg: 32%
Adult mongrel dogs [2]; [8]
  change in vivo at 1.2 mg/kg: -26%
Adult mongrel dogs [2]; [9]
  change in vivo at 1.2 mg/kg: 60%
Adult mongrel dogs [2]; [10]
  change in vivo at 1.2 mg/kg: -52%

## CCOc1cc2c(C)nc(O)c([N+](=O)[O-])c2cc1OCC [BK]
Adult mongrel dogs [1]; [3]
  change in vivo at 0.375 mg/kg: 62%
Adult mongrel dogs [1]; [4]
  change in vivo at 0.375 mg/kg: 11%
Adult mongrel dogs [1]; [5]
  change in vivo at 0.375 mg/kg: -2%
Adult mongrel dogs [1]; [6]
  change in vivo at 0.375 mg/kg: 22%
Adult mongrel dogs [2]; [7]
  change in vivo at 0.34 mg/kg: 3%
Adult mongrel dogs [2]; [8]
  change in vivo at 0.34 mg/kg: -21%
Adult mongrel dogs [2]; [9]
  change in vivo at 0.34 mg/kg: 14%
Adult mongrel dogs [2]; [10]
  change in vivo at 0.34 mg/kg: -30%

## O=[N+]([O-])c1c(O)ncc2cc3c(cc12)OCO3 [Compound BC]
Adult mongrel dogs [1]; [3]
  change in vivo at 1.875 mg/kg: 16%
Adult mongrel dogs [1]; [4]
  change in vivo at 1.875 mg/kg: 0%
Adult mongrel dogs [1]; [5]
  change in vivo at 1.875 mg/kg: -7.5%
Adult mongrel dogs [1]; [6]
  change in vivo at 1.875 mg/kg: 22%
Adult mongrel dogs [2]; [7]
  change in vivo at 1.2 mg/kg: -6%
Adult mongrel dogs [2]; [8]
  change in vivo at 1.2 mg/kg: -14%
Adult mongrel dogs [2]; [9]
  change in vivo at 1.2 mg/kg: 20%
Adult mongrel dogs [2]; [10]
  change in vivo at 1.2 mg/kg: -28%

## COc1cc2c(-c3ccccc3)nc(O)c([N+](=O)[O-])c2cc1OC [BL]
Adult mongrel dogs [1]; [3]
  change in vivo at 1.875 mg/kg: 10%
Adult mongrel dogs [1]; [4]
  change in vivo at 1.875 mg/kg: -29%
Adult mongrel dogs [1]; [5]
  change in vivo at 1.875 mg/kg: -15%
Adult mongrel dogs [1]; [6]
  change in vivo at 1.875 mg/kg: 11%
Adult mongrel dogs [2]; [7]
  change in vivo at 0.34 mg/kg: 29%
Adult mongrel dogs [2]; [8]
  change in vivo at 0.34 mg/kg: 6%
Adult mongrel dogs [2]; [9]
  change in vivo at 0.34 mg/kg: 13%
Adult mongrel dogs [2]; [10]
  change in vivo at 0.34 mg/kg: -5%

## CCCCOc1cc2c(C)nc(O)c([N+](=O)[O-])c2cc1OC [BI]
Adult mongrel dogs [1]; [3]
  change in vivo at 0.375 mg/kg: 118%
Adult mongrel dogs [1]; [4]
  change in vivo at 0.375 mg/kg: 30%
Adult mongrel dogs [1]; [5]
  change in vivo at 0.375 mg/kg: -35%
Adult mongrel dogs [1]; [6]
  change in vivo at 0.375 mg/kg: 8%
Adult mongrel dogs [2]; [8]
  change in vivo at 0.14 mg/kg: -8%
Adult mongrel dogs [2]; [9]
  change in vivo at 0.14 mg/kg: 16%
Adult mongrel dogs [2]; [10]
  change in vivo at 0.14 mg/kg: -18%

## COc1cc2c(C)nc(O)c(NC(C)=O)c2cc1OC [Compound BG, 4-Acetamido-3-hydroxy-6,7-dimethoxy-1-methylisoquinoline Hemihydrate]
Adult mongrel dogs [1]; [3]
  change in vivo at 8.75 mg/kg: 47%
Adult mongrel dogs [1]; [4]
  change in vivo at 8.75 mg/kg: 5%
Adult mongrel dogs [1]; [5]
  change in vivo at 8.75 mg/kg: -3%
Adult mongrel dogs [1]; [6]
  change in vivo at 8.75 mg/kg: 33%
Adult mongrel dogs [2]; [7]
  change in vivo at 6.2 mg/kg: 14%
Adult mongrel dogs [2]; [8]
  change in vivo at 6.2 mg/kg: 6%
Adult mongrel dogs [2]; [9]
  change in vivo at 6.2 mg/kg: 39%
Adult mongrel dogs [2]; [10]
  change in vivo at 6.2 mg/kg: -24%

## CCOc1cc2c(C)nc(O)c(NC(C)=O)c2cc1OC [BJ]
Adult mongrel dogs [1]; [3]
  change in vivo at 1.875 mg/kg: 21%
Adult mongrel dogs [1]; [4]
  change in vivo at 1.875 mg/kg: -3%
Adult mongrel dogs [1]; [5]
  change in vivo at 1.875 mg/kg: 1%
Adult mongrel dogs [1]; [6]
  change in vivo at 1.875 mg/kg: 8%
Adult mongrel dogs [2]; iv, read-out: HR, percent change in heart rate
  change in vivo at 6.34 mg/kg: -16%
Adult mongrel dogs [2]; 6.34 mg/kg intravenous, relative to controls, read-out: MABP, mean arterial blood pressure
  change in vivo at 6.34 mg/kg: -4%
Adult mongrel dogs [2]; 6.34 mg/kg intravenous, relative to controls, read-out: RBF, renal blood flow
  change in vivo at 6.34 mg/kg: 18%
Adult mongrel dogs [2]; 6.34 mg/kg intravenous, relative to controls, read-out: RVR, renal vascular resistance
  change in vivo at 6.34 mg/kg: -19%

## Cc1nc(O)c([N+](=O)[O-])c2cc3c(cc12)OCO3 [Compound BB]
Adult mongrel dogs [1]; [3]
  change in vivo at 1.875 mg/kg: 28%
Adult mongrel dogs [1]; [4]
  change in vivo at 1.875 mg/kg: -17%
Adult mongrel dogs [1]; [5]
  change in vivo at 1.875 mg/kg: -8%
Adult mongrel dogs [1]; [6]
  change in vivo at 1.875 mg/kg: -1%
Adult mongrel dogs [2]; [7]
  change in vivo at 6.2 mg/kg: 90%
Adult mongrel dogs [2]; [8]
  change in vivo at 6.2 mg/kg: -16%
Adult mongrel dogs [2]; [9]
  change in vivo at 6.2 mg/kg: 19%
Adult mongrel dogs [2]; [10]
  change in vivo at 6.2 mg/kg: -30%

Reference: patent publication US4714705A, “4-nitrogen substituted isoquinolinol compounds having cardiotonic, phosphodiesterase fraction III inhibiting properties and/or renal vasodilating properties” (Ortho Pharmaceutical Corporation, priority 1986, dated 1987)
